Assays:
[1] = target: T1, Flt-3 (baculovirus expressed human Flt-3 kinase domain R571-S993) (Homo sapiens, UniProt P36888); assay: biochemical; conditions: Table 4, inhibition as IC50 class; read-out: flt3 IC50;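 note: Luciferase-coupled chemiluminescent kinase assay, activity read as percent ATP left after a 3 h reaction at room temperature, ATP near KM, 10-point dose-response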
T1 construct: human Flt-3 kinase domain R571-S993; host or cells: baculovirus expression
T1 sequence (P36888 571-993): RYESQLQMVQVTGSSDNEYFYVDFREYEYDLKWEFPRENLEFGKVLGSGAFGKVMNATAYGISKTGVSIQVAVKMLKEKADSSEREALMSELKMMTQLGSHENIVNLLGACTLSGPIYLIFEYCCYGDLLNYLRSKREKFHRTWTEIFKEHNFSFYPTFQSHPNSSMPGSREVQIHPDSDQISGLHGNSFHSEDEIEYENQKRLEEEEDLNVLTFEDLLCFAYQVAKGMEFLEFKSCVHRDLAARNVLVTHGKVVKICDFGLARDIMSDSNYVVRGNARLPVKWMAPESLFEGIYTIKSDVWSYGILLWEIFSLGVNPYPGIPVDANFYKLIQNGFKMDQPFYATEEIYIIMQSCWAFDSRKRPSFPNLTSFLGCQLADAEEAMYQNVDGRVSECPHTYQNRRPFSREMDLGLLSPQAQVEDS

[2] = target: T2, Flt-4 (baculovirus expressed human Flt-4 kinase domain D725-R1298) (Homo sapiens, UniProt P35916); assay: flt-4 Alphascreen Tyrosine Kinase assay; type: biochemical; conditions: Table 4, inhibition as IC50 class; read-out: flt4 IC50;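 note: AlphaScreen chemiluminescence read-out of biotinylated poly(Glu,Tyr) 4:1 phosphorylation via streptavidin donor and PY100 anti-phosphotyrosine acceptor beads, ATP near KM, 1 hr kinase reaction, 10-point dose-response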
T2 construct: human Flt-4 kinase domain D725-R1298; host or cells: baculovirus expression

[3] = target: T3, c-Met (baculovirus expressed human c-Met kinase domain P948-S1343) (Homo sapiens, UniProt P08581); assay: c-Met Luciferase-Coupled Chemiluminescent Kinase assay (LCCA); type: biochemical; conditions: Table 4, inhibition as IC50 class;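 note: kinase activity read as percent ATP left after reaction, by luciferase-luciferin chemiluminescence, with 1 µM ATP and 1 µM poly-EY substrate, 2 h at ambient temperature, 10-point dose-response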
T3 construct: human c-Met kinase domain P948-S1343; host or cells: baculovirus expression

c-Kit kinase = c-Kit kinase (Homo sapiens, UniProt P10721); assay: c-Kit AlphaScreen kinase assay; type: biochemical; conditions: Table 4, inhibition as IC50 class;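 note: c-Kit kinase phosphorylating biotinylated poly(Glu,Tyr), ATP near its KM, 1 h reaction at ambient temperature, AlphaScreen chemiluminescence with streptavidin donor and anti-phosphotyrosine acceptor beads, 10-point inhibitor titration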
[4] = target: T4, KDR (baculovirus expressed human KDR kinase domain D807-V1356) (Homo sapiens, UniProt P35968); assay: biochemical; conditions: Table 4, inhibition as IC50 class;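 note: Luciferase-coupled chemiluminescent kinase assay, activity read as percent ATP left after 4 h reaction at ambient temperature, ATP near KM, 10-point dose-response in 384-well plates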
T4 construct: human KDR kinase domain D807-V1356; host or cells: baculovirus expression
T4 sequence (P35968 807-1356): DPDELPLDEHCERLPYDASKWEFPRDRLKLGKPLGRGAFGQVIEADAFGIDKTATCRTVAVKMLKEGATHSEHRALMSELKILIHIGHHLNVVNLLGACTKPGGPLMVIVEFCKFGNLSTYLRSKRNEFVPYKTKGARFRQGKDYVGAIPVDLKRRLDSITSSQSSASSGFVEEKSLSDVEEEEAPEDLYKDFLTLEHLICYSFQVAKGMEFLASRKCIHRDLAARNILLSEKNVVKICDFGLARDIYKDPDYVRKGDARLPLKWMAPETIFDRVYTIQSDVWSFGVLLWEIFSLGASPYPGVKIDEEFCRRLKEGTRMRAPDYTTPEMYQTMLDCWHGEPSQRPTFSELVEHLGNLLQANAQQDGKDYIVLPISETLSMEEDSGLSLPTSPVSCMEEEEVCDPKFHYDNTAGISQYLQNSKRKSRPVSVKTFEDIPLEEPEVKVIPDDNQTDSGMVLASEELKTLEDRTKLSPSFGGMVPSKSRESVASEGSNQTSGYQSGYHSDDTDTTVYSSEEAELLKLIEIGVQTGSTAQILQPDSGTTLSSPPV

T3 sequence (P08581 1011-1343 limits assumed): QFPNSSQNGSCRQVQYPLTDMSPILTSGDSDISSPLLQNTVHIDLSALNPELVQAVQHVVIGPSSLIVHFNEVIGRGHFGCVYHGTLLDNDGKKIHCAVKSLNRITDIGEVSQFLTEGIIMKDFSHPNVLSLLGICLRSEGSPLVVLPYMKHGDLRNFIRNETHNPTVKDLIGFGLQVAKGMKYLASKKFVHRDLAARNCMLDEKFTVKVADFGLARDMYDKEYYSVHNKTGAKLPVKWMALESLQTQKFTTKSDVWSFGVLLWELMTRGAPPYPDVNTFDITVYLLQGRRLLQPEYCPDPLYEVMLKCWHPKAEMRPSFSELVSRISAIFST
T2 sequence (P35916 725-1298 isoform P35916-1): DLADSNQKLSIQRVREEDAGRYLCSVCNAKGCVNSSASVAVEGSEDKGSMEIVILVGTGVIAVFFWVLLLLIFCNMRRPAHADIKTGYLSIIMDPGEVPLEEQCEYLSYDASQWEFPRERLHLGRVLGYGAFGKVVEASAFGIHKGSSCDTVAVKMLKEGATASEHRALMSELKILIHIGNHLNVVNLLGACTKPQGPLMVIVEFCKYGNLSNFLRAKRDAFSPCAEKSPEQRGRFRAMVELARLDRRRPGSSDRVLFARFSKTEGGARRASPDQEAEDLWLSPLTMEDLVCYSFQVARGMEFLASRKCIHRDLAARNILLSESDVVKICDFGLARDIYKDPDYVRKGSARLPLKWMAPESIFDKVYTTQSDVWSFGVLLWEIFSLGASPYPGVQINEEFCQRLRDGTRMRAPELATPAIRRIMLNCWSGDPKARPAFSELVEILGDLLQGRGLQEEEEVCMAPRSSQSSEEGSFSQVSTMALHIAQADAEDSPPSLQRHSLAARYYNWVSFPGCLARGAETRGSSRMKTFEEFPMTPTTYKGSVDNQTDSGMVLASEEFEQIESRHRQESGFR
Chain of c-Kit kinase (P10721 26-976): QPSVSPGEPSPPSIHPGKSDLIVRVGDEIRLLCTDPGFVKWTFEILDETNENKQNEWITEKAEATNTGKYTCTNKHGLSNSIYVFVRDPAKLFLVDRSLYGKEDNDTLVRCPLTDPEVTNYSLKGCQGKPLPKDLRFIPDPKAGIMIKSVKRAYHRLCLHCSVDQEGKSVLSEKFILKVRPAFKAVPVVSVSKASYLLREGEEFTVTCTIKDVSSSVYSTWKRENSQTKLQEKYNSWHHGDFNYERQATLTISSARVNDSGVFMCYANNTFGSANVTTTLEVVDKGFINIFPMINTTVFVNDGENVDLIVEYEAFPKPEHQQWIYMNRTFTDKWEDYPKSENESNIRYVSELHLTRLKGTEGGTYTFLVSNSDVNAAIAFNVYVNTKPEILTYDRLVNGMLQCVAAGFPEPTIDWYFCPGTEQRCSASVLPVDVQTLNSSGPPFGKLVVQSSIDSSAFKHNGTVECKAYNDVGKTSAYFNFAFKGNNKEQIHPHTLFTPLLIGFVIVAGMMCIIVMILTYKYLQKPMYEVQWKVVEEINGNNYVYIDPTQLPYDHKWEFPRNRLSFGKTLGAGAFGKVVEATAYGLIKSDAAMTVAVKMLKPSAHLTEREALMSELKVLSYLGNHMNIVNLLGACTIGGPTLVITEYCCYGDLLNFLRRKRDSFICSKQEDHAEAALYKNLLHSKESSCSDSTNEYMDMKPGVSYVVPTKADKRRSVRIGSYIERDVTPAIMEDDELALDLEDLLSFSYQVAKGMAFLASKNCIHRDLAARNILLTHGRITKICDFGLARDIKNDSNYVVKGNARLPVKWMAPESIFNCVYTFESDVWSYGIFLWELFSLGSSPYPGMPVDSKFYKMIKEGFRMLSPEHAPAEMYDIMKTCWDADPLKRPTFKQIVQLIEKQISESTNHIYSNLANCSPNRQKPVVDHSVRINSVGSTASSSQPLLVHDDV

IC50 [1] [µM]	IC50 [2] [µM]	IC50 [3] [µM]	IC50 (c-Kit kinase) [µM]	IC50 [4] [µM]	SMILES
< 0.05	0.05 to 0.5	< 0.05	0.05 to 0.5	0.05 to 0.5	COc1cc2c(Oc3ccc(NC(=O)C(=O)NCC(c4ccccc4)c4ccccc4)cc3F)ccnc2cc1OCC1CCNCC1 [Example 227, N-(2,2-diphenylethyl)-N′-[3-fluoro-4-({6-(methyloxy)-7-[(piperidin-4-ylmethyl)oxy]quinolin-4-yl}oxy)phenyl]ethanediamide]
0.05 to 0.5	0.05 to 0.5	< 0.05	0.05 to 0.5	0.05 to 0.5	COc1ccc(CCNC(=O)C(=O)Nc2ccc(Oc3ccnc4cc(OCC5CCNCC5)c(OC)cc34)c(F)c2)cc1 [Example 228, N-[3-fluoro-4-({6-(methyloxy)-7-[(piperidin-4-ylmethyl)oxy]quinolin-4-yl}oxy)phenyl]-N′-{2-[4-(methyloxy)phenyl]ethyl}ethanediamide]
< 0.05	< 0.05	< 0.05	< 0.05	< 0.05	COc1cc2c(Oc3ccc(NC(=O)C(=O)NCC(C)c4ccccc4)cc3F)ccnc2cc1OCC1CCNCC1 (stereo not drawn) [Example 229, N-[3-fluoro-4-({6-(methyloxy)-7-[(piperidin-4-ylmethyl)oxy]quinolin-4-yl}oxy)phenyl]-N′-(2-phenylpropyl)ethanediamide]
0.05 to 0.5	0.05 to 0.5	< 0.05	0.05 to 0.5	< 0.05	COc1cc2c(Oc3ccc(NC(=O)C(=O)NCCc4ccc(Br)cc4)cc3F)ccnc2cc1OCC1CCNCC1 [Example 230, N-[2-(4-bromophenyl)ethyl]-N′-[3-fluoro-4-({6-(methyloxy)-7-[(piperidin-4-ylmethyl)oxy]quinolin-4-yl}oxy)phenyl]ethanediamide]
0.05 to 0.5	0.05 to 0.5	< 0.05	0.05 to 0.5	0.05 to 0.5	CCN1CCC(COc2cc3nccc(Oc4ccc(NC(=O)C(=O)N5CCOC(c6ccccc6)C5)cc4F)c3cc2OC)CC1 (stereo not drawn) [Example 231, N-(4-{[7-{[(1-ethylpiperidin-4-yl)methyl]oxy}-6-(methyloxy)quinolin-4-yl]oxy}-3-fluorophenyl)-2-oxo-2-(2-phenylmorpholin-4-yl)acetamide]
< 0.05	0.05 to 0.5	< 0.05	0.05 to 0.5	< 0.05	COc1cc2c(Oc3ccc(NC(=O)C(=O)NCc4cc(F)cc(C(F)(F)F)c4)cc3F)ccnc2cc1OCC1CCNCC1 [Example 232, N-[3-fluoro-4-({6-(methyloxy)-7-[(piperidin-4-ylmethyl)oxy]quinolin-4-yl}oxy)phenyl]-N′-{[3-fluoro-5-(trifluoromethyl)phenyl]methyl}ethanediamide]
0.05 to 0.5	< 0.05	< 0.05	< 0.05	< 0.05	COc1cc2c(Oc3ccc(NC(=O)C(=O)NCc4cc(F)cc(F)c4)cc3F)ccnc2cc1OCC1CCNCC1 [Example 233, N-[(3,5-difluorophenyl)methyl]-N′-[3-fluoro-4-({6-(methyloxy)-7-[(piperidin-4-ylmethyl)oxy]quinolin-4-yl}oxy)phenyl]ethanediamide]
< 0.05	0.05 to 0.5	< 0.05	0.05 to 0.5	< 0.05	COc1cc2c(Oc3ccc(NC(=O)C(=O)NCc4cc(C(F)(F)F)ccc4Cl)cc3F)ccnc2cc1OCC1CCNCC1 [Example 234, N-{[2-chloro-5-(trifluoromethyl)phenyl]methyl}-N′-[3-fluoro-4-({6-(methyloxy)-7-[(piperidin-4-ylmethyl)oxy]quinolin-4-yl}oxy)phenyl]ethanediamide]
< 0.05	0.05 to 0.5	< 0.05	< 0.05	< 0.05	COc1cc2c(Oc3ccc(NC(=O)C(=O)NCc4cccc(C(F)(F)F)c4)cc3F)ccnc2cc1OCC1CCNCC1 [Example 239, N-[3-fluoro-4-({6-(methyloxy)-7-[(piperidin-4-ylmethyl)oxy]quinolin-4-yl}oxy)phenyl]-N′-{[3-(trifluoromethyl)phenyl]methyl}ethanediamide]

From patent US8476298B2 (Exelixis, Inc., priority 2003, dated 2013)
